Laboratory results reported in patent publication US20170362283A1, “NISIN-BASED COMPOUNDS AND USE THEREOF IN THE TREATMENT OF BACTERIAL INFECTIONS” (UNIVERSITEIT UTRECHT HOLDING B.V., priority 2015, published 2017).
In brackets after ≈: the same amount, converted by molar mass. Like-named read-outs stand apart in the source and are kept apart here.

Experiments:
B. subtilis = conditions: duplicate experiments
Method: (§1) Determining the MIC value is a standard technique well known to the skilled person, in particular the MIC value can be measured using method M07-A9 (CLSI standard, January 2012, Vol. 32, No. 2, “Methods for Dilution Antimicrobial Susceptibility Tests for Bacteria That Grow Aerobically”).
(§2) Different microorganisms (from glycerol stock) were plated out on blood agar and incubated at 37° C. for 24 hours. A colony was selected and 2×5 mL of TSB was inoculated. The samples and a sterile control were cultured for 16-20 hours at 37° C. Comparative compound B is nisin acting as a control. […] Comparative compounds A, D and E are also control compounds not part of the present invention.
(§3) The overnight cultures were diluted to 0.5×10^6 CFU in TSB. 50 μL of the bacterial solution was added to each well and the plates were sealed with an adhesive membrane and incubated at 37° C. for 16 hours. The next day, the plates were visually inspected for bacterial growth.

E. coli = conditions: duplicate experiments
Method: as §1, §2, §3

S. aureus = conditions: duplicate experiments
Method: as §1, §2, §3

M. luteus = assay type: cell-based; conditions: duplicate experiments
Method: as §1
(§4) Different microorganisms (from glycerol stock) were plated out on blood agar and incubated at 37° C. for 24 hours. A colony was selected and 2×5 mL of TSB was inoculated. The samples and a sterile control were cultured for 16-20 hours at 37° C. Comparative compound B is nisin acting as a control. Comparative compound C is vancomycin, also acting as a control. Comparative compounds A, D and E are also control compounds not part of the present invention.
as §3

VRE 155 = assay type: cell-based; conditions: duplicate experiments
Method: as §1, §4, §3

MRSA USA300 = assay type: cell-based, Staphylococcus aureus; conditions: duplicate experiments
Method: as §1, §4, §3

MRSA WKZ2 = assay type: cell-based, Staphylococcus aureus; conditions: duplicate experiments
Method: as §1, §4, §3

Serum stability = assay type: in vitro ADME; conditions: human serum, 37° C., after 24 hours; read-out: stability in human serum, remained intact
Method: 2 mg/mL peptide solutions were prepared in 26% DMSO in MilliQ. Duplicate samples were prepared with […] peptide solution and […] human serum, making the final DMSO concentration 2%. The samples were incubated at 37° C., and samples were taken at t=0, 1, 2, 4 and 24 hours as follows: to 100 μL serum solution, 200 μL MeOH (containing 0.075 mg/mL ethylparaben as an internal standard) was added to precipitate the proteins. The sample was vortexed briefly and allowed to stand for 10 min at RT. The samples were then centrifuged at 13,000 rpm for 5 min, and the supernatant was taken and stored at −20° C. until analysis. Each sample was analyzed by HPLC on a C4 column. The peaks were integrated and normalized to the internal standard.

erythrocytes = test: Hemolysis assay; conditions: human erythrocytes, 1 h
Method: Human whole blood was centrifuged at 600×g for 15 min and levels of plasma and hematocrit were marked on the tube. Plasma was removed and the erythrocytes washed 3× with PBS (centrifuging at 600×g for 15 mins). After discarding the supernatant, the packed cells were stored on ice. 100 μL of the peptides (128 μg/mL in PBS, 2% DMSO) as well as a control solution comprised of 2% DMSO in PBS were added to the top row of a polypropylene, round-bottom 96 well plate and 50 μL of PBS to the rest of the wells. The peptides and the DMSO control solutions were then diluted serially down the rows. 200 μL of the packed cells were added to PBS (10 mL) and 50 μL of this suspension was added to each well. A column with DI water containing 0.1% Triton X-100 was used as the 100% lysis control, and the column containing the serially-diluted PBS (1.0% DMSO) control served as the 0% lysis reference. The cells were incubated at 37° C. for 1 h. After incubation the plates were centrifuged (800×g, 5 min) and 25 μL of the supernatant was added to 100 μL DI water in a flat-bottom plate (polystyrene). The absorption at 414 nm was recorded to measure the amount of free hemoglobin.

| Compound | MIC values B. subtilis (B. subtilis) [µg/mL] | MIC values E. coli (E. coli) [µg/mL] | MIC values S. aureus (S. aureus) [µg/mL] | MIC values M. luteus (M. luteus) [µg/mL] | MIC values VRE 155 (VRE 155) [µg/mL] | MIC values MRSA USA300 (MRSA USA300) [µg/mL] | MIC values MRSA WKZ2 (MRSA WKZ2) [µg/mL] | MIC (thirty VRE strains; VRE strain E0013, GBR, vanA) [µg/mL] | MIC (thirty VRE strains; VRE strain E0072, NLD, vanA) [µg/mL] | MIC (thirty VRE strains; VRE strain E0300, USA, vanA) [µg/mL] | MIC (thirty VRE strains; VRE strain E0321, FRA, vanA) [µg/mL] | MIC (thirty VRE strains; VRE strain E0333, ISR, vanA) [µg/mL] | MIC (thirty VRE strains; VRE strain E0338, ITA, vanA) [µg/mL] | MIC (thirty VRE strains; VRE strain E0341, GBR, vanA) [µg/mL] | MIC (thirty VRE strains; VRE strain E0506, AUS, vanA) [µg/mL] | MIC (thirty VRE strains; VRE strain E0745, NLD, vanA) [µg/mL] | MIC (thirty VRE strains; VRE strain E1130, USA, vanA) [µg/mL] | MIC (thirty VRE strains; VRE strain E1441, GRC, vanA) [µg/mL] | MIC (thirty VRE strains; VRE strain E1679, BRA, vanA) [µg/mL] | MIC (thirty VRE strains; VRE strain E1763, BEL, vanA) [µg/mL] | other results |
| --- | --- | --- | --- | --- | --- | --- | --- | --- | --- | --- | --- | --- | --- | --- | --- | --- | --- | --- | --- | --- | --- |
| C=C1NC(=O)[C@H]([C@@H](C)CC)NC(=O)[C@H](NC(=O)C(=CC)NC(=O)[C@@H](N)[C@@H](C)CC)CSC[C@@H](C(=O)N[C@H]2C(=O)N3CCC[C@H]3C(=O)NCC(=O)N[C@H](C(=O)N[C@@H](CCCCN)C(=O)NCCCCCCCCCCCCCC)CS[C@H]2C)NC(=O)[C@H](CC(C)C)NC1=O [(10)] | 4 (≈ 2.97 µM) | >64 | 16 (≈ 11.9 µM) | 1 to 2 | 4 (≈ 2.97 µM) | 64 (≈ 47.6 µM) | 32 (≈ 23.8 µM) | 4 (≈ 2.97 µM) | 2 (≈ 1.49 µM) | 8 to 16 | 2 (≈ 1.49 µM) | 4 (≈ 2.97 µM) | 4 (≈ 2.97 µM) | 4 (≈ 2.97 µM) | 8 (≈ 5.94 µM) | 4 (≈ 2.97 µM) | 4 (≈ 2.97 µM) | 4 (≈ 2.97 µM) | 4 (≈ 2.97 µM) | 8 (≈ 5.94 µM) | remaining at 24 h, 0.15 mg/mL (Serum stability): > 50%; MIC (thirty VRE strains; VRE strain E2297, USA, vanA): 2 µg/mL (≈ 1.49 µM); MIC (thirty VRE strains; VRE strain E2359, SGP, vanB): 2 µg/mL (≈ 1.49 µM); MIC (thirty VRE strains; VRE strain E2365, HUN, vanB): 1 µg/mL (≈ 0.743 µM); MIC (thirty VRE strains; VRE strain E2373, SRB, vanA): 4 µg/mL (≈ 2.97 µM); MIC (thirty VRE strains; VRE strain E6016, LVA, vanA): 2 to 4 µg/mL; MIC (thirty VRE strains; VRE strain E7312, NLD, vanA): 2 µg/mL (≈ 1.49 µM); MIC (thirty VRE strains; VRE strain E7314, NLD, vanB): 4 µg/mL (≈ 2.97 µM); MIC (thirty VRE strains; VRE strain E7319, NLD, vanA): 2 µg/mL (≈ 1.49 µM); MIC (thirty VRE strains; VRE strain E7329, NLD, vanA): 2 µg/mL (≈ 1.49 µM); MIC (thirty VRE strains; VRE strain E7401, NLD, vanB): 4 µg/mL (≈ 2.97 µM); MIC (thirty VRE strains; VRE strain E7403, NLD, vanB): 1 µg/mL (≈ 0.743 µM); MIC (thirty VRE strains; VRE strain E7413, NLD, vanA): 4 µg/mL (≈ 2.97 µM); MIC (thirty VRE strains; VRE strain E7424, NLD, vanB): 1 to 2 µg/mL; MIC (thirty VRE strains; VRE strain E7464, NLD, vanB): 4 µg/mL (≈ 2.97 µM); MIC (thirty VRE strains; VRE strain E8218, NLD, vanB): 2 µg/mL (≈ 1.49 µM); MIC (thirty VRE strains; VRE strain E8235, NLD, vanB): 4 µg/mL (≈ 2.97 µM); MIC (thirty VRE strains; VRE strain E8237, NLD, vanA): 8 µg/mL (≈ 5.94 µM) |
| C=C1NC(=O)[C@H]([C@@H](C)CC)NC(=O)[C@H](NC(=O)C(=CC)NC(=O)[C@@H](N)[C@@H](C)CC)CSC[C@@H](C(=O)N[C@H]2C(=O)N3CCC[C@H]3C(=O)NCC(=O)N[C@H](C(=O)N[C@@H](CCCCNC(C)=O)C(=O)NCCCCCCCCCCCC)CS[C@H]2C)NC(=O)[C@H](CC(C)C)NC1=O [Compound (20)] | – | – | – | – | 4 (≈ 2.94 µM) | >64 | – | – | – | – | – | – | – | – | – | – | – | – | – | – | hemolysis (erythrocytes; up to the highest concentration tested (64 μg/mL)): no detectable hemolysis |
| vancomycin | 0.03 to 0.06 | >10 | 0.25 to 0.31 | 0.03 | >10 | 0.625 | 0.625 | 32 | 8 | >128 | >128 | >128 | >128 | 128 | >128 | 64 | >128 | 128 | >128 | >128 | hemolysis (erythrocytes; at 32 μg/mL): negligible hemolysis; MIC (thirty VRE strains; VRE strain E2297, USA, vanA): 128 µg/mL; MIC (thirty VRE strains; VRE strain E2359, SGP, vanB): <1-1 μg/mL; MIC (thirty VRE strains; VRE strain E2365, HUN, vanB): <1 µg/mL; MIC (thirty VRE strains; VRE strain E2373, SRB, vanA): >128 µg/mL; MIC (thirty VRE strains; VRE strain E6016, LVA, vanA): 128 µg/mL; MIC (thirty VRE strains; VRE strain E7312, NLD, vanA): 64 µg/mL; MIC (thirty VRE strains; VRE strain E7314, NLD, vanB): >128 µg/mL; MIC (thirty VRE strains; VRE strain E7319, NLD, vanA): >128 µg/mL; MIC (thirty VRE strains; VRE strain E7329, NLD, vanA): <1 µg/mL; MIC (thirty VRE strains; VRE strain E7401, NLD, vanB): 16 µg/mL; MIC (thirty VRE strains; VRE strain E7403, NLD, vanB): <1 µg/mL; MIC (thirty VRE strains; VRE strain E7413, NLD, vanA): >128 µg/mL; MIC (thirty VRE strains; VRE strain E7424, NLD, vanB): >128 µg/mL; MIC (thirty VRE strains; VRE strain E7464, NLD, vanB): 2 µg/mL; MIC (thirty VRE strains; VRE strain E8218, NLD, vanB): 8 µg/mL; MIC (thirty VRE strains; VRE strain E8235, NLD, vanB): 8 µg/mL; MIC (thirty VRE strains; VRE strain E8237, NLD, vanA): 128 µg/mL; MIC50 (thirty VRE strains; thirty VRE strains): MIC50 = 128 μg/mL; MIC90 (thirty VRE strains; thirty VRE strains): MIC90 = >128 μg/mL |
